Assay results from patent US9757363B2, “SNS-595 and methods of using the same” (Sunesis Pharmaceuticals, Inc., priority 2004, dated 2017).
Like-named read-outs stand apart in the source and are kept apart here.

Test: Pharmacokinetics of SNS-595 in cancer patients
Type: in vivo, human
Conditions: for AUC(0-t) / AUC(0-inf) / MRT inf / Cmax: human, intravenous
Experimental: SNS-595 was administered to enrolled patients for up to six cycles. A cycle is defined as a three-week period, with SNS-595 administered on the first day of each cycle (day 0), followed by at least 21 days of observation. SNS-595 was administered to cohorts of at least 3 patients and dose escalation occurred by sequential cohort.

[1] = 48 mg/m2, plasma, dose 48 mg/m^2
[2] = 60 mg/m2, plasma, dose 60 mg/m^2

relation of dose to AUC^oo (dose escalation by sequential cohort): linear | AUC(0-t) (3 mg/m2, plasma, dose 3 mg/m^2): 750 ng·h/mL | AUC(0-t) (6 mg/m2, plasma, dose 6 mg/m^2): 2400 ng·h/mL | AUC(0-inf) (6 mg/m2, plasma, dose 6 mg/m^2, read-out: AUCINF_obs): 2990 ng·h/mL | MRT inf (6 mg/m2, plasma, dose 6 mg/m^2, read-out: MRTINF_obs): 29.1 h | AUC(0-t) (12 mg/m2, plasma, dose 12 mg/m^2): 5400 ng·h/mL | MRT inf (12 mg/m2, plasma, dose 12 mg/m^2, read-out: MRTINF_obs): 23.7 h | AUC(0-t) (24 mg/m2, plasma, dose 24 mg/m^2): 11100 ng·h/mL | MRT inf (24 mg/m2, plasma, dose 24 mg/m^2, read-out: MRTINF_obs): 21.6 h | AUC(0-t) [1]: 21100 ng·h/mL | Cmax [1]: 2870 ng/mL | AUC(0-inf) (48 mg/m2, plasma, dose 48 mg/m^2, read-out: AUCINF_obs): 27300 ng·h/mL | MRT inf (48 mg/m2, plasma, dose 48 mg/m^2, read-out: MRTINF_obs): 28.9 h | AUC(0-t) [2]: 28100 ng·h/mL | Cmax [2]: 4540 ng/mL | AUC(0-inf) (60 mg/m2, plasma, dose 60 mg/m^2, read-out: AUCINF_obs): 33600 ng·h/mL | MRT inf (60 mg/m2, plasma, dose 60 mg/m^2, read-out: MRTINF_obs): 23.7 h | CO (plasma, dose 3 mg/m^2): 152.25 ng/mL | CO (plasma, dose 6 mg/m^2): 379.69 ng/mL | CO (plasma, dose 12 mg/m^2): 2888.66 ng/mL | CO (plasma, dose 24 mg/m^2): 2924.46 ng/mL | CO (plasma, dose 48 mg/m^2): 1984.52 ng/mL | Vss_obs (plasma, dose 48 mg/m^2): 1.46 L/kg | CO (plasma, dose 60 mg/m^2): 4797.47 ng/mL
Structure (SMILES): CN[C@H]1CN(c2ccc3c(=O)c(C(=O)O)cn(-c4nccs4)c3n2)C[C@@H]1OC [SNS-595, (+)-1,4-dihydro-7-[(3S,4S)-3-methoxy-4-(methylamino)-1-pyrrolidinyl]-4-oxo-1-(2-thiazoyl)-1,8-naphthyridine-3-carboxylic acid]
